According to patent publication US12281149B2, “Modulators of G-protein coupled receptors” (priority 2021, dated 2025):
*1 amine or outer side, *2 acyl side, *3 side chain or, on linkers, in order; H or OH if unused. Where a SMILES comes first, the peptide text is derived from it. Side-chain parts run from the residue outwards. [ ]: non-standard residue; d: D form. The star is where a group is joined. Isobutyryl(2-(3-CN-5-F-Ph)) = CC(C)(C(=O)*)c1cc(F)cc(C#N)c1; C20 diacid = O=C(O)CCCCCCCCCCCCCCCCCCC(=O)*; γGlu = O=C(O)[C@H](CCC(=O)[*:2])N[*:1]; X71 = COc1cc(F)cc(C(C)(C)C(=O)*)c1; AEEA = NCCOCCOCC(=O)O; Aib = CC(C)(N)C(=O)O; βAla = NCCC(=O)O

Key:
Assay type in all cases: cell-based
[1] = target: T1, GLP-1 receptor (Homo sapiens, UniProt P43220); test: HitHunter cAMP assay, GLP-1 receptor; conditions: for EC50: CHO cells stably expressing human GLP-1 receptor, cAMP accumulation, 30 min, read-out: EC50 GLP-1R; for Emax: CHO cells, cAMP, normalized to maximum signal from GLP-1 (high) and DMSO (low), read-out: Emax GLP-1R
T1 sequence (P43220 24-463): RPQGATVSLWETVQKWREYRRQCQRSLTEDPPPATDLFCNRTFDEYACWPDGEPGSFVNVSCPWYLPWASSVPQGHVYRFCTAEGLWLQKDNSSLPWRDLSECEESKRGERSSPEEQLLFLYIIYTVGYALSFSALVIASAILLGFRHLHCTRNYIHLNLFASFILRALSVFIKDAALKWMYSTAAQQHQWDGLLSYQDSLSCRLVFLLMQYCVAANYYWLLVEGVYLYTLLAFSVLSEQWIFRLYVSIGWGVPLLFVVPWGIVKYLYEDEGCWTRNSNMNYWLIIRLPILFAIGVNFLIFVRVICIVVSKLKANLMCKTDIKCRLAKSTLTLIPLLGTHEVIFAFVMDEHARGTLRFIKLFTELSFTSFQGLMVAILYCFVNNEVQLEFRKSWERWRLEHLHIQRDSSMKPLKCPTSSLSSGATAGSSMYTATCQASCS

[2] = target: T1, GLP-1 receptor; test: PathHunter β-arrestin assay, GLP-1 receptor; set-up: host or cells: PathHunter CHO-K1 GLP1R β-Arrestin Cell Line; conditions: β-arrestin-2 recruitment, PathHunter CHO-K1 GLP1R β-Arrestin Cell Line, 90 min at 37° C.; normalized to GLP-1; read-out: GLP-1R β Arrestin EC50
[3] = target: T2, GIP receptor (Homo sapiens, UniProt P48546); test: PathHunter β-arrestin assay, GIP receptor; set-up: host or cells: PathHunter CHO-K1 GIPR β-Arrestin Cell Line; conditions: β-arrestin-2 recruitment, PathHunter CHO-K1 GIPR β-Arrestin Cell Line, 90 min at 37° C.; normalized to GIP; read-out: GIPR β Arrestin EC50
T2 sequence (P48546 22-466): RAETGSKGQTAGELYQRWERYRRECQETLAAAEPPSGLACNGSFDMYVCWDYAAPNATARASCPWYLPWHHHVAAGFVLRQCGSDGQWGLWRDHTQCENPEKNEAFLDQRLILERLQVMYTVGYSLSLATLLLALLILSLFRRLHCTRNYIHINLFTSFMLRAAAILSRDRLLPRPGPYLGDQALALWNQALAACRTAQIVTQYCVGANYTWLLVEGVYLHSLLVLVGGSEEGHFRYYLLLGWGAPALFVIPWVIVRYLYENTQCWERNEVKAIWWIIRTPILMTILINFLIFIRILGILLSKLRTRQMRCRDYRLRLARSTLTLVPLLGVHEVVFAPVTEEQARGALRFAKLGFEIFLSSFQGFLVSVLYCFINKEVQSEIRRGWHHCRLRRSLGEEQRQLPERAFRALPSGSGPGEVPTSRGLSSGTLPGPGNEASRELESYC

[4] = target: T2, GIP receptor; test: HitHunter cAMP assay, GIP receptor; conditions: for EC50: CHO cells stably expressing GIP receptor, cAMP accumulation, 30 min, read-out: EC50 GIP-1R; for Emax: CHO cells, cAMP, normalized to maximum signal from GIP (high) and DMSO (low), read-out: Emax GIP-1R

Row | SMILES | EC50 [1] | Emax [1] | EC50 [2] | EC50 [3] | EC50 [4] | Emax [4]
1 | CC[C@H](C)[C@H](NC(=O)[C@H](CC(C)C)NC(=O)[C@H](Cc1c[nH]c2ccccc12)NC(=O)[C@H](CCC(N)=O)NC(=O)[C@@H](NC(=O)[C@H](Cc1ccccc1)NC(=O)[C@H](C)NC(=O)[C@H](CCCCNC(=O)COCCOCCNC(=O)COCCOCCNC(=O)CC[C@H](NC(=O)CCCCCCCCCCCCCCCCCCC(=O)O)C(=O)O)NC(=O)[C@H](CCC(N)=O)NC(=O)[C@H](C)NC(=O)[C@@H](NC(=O)[C@H](CCCCN)NC(=O)[C@H](CC(=O)O)NC(=O)[C@H](CC(C)C)NC(=O)C(C)(C)NC(=O)[C@@H](NC(=O)[C@H](CO)NC(=O)[C@H](Cc1ccc(O)cc1)NC(=O)[C@H](CC(=O)O)NC(=O)[C@H](CO)NC(=O)[C@@H](NC(=O)[C@H](Cc1ccccc1)NC(=O)[C@@H](NC(=O)CNC(=O)[C@H](CCC(=O)O)NC(=O)CCNC(=O)C(C)(C)c1cc(F)cc(C#N)c1)[C@@H](C)O)[C@@H](C)O)[C@@H](C)CC)[C@@H](C)CC)C(C)C)C(=O)N[C@@H](C)C(=O)NCC(=O)NCC(=O)N1CCC[C@H]1C(=O)N[C@@H](CO)C(=O)N[C@@H](CO)C(=O)NCC(=O)N[C@@H](C)C(=O)N1CCC[C@H]1C(=O)N1CCC[C@H]1C(=O)N1CCC[C@H]1C(=O)N[C@@H](CO)C(=O)O [Compound 169] ({Isobutyryl(2-(3-CN-5-F-Ph))-βAla}-EGTFTSDYSI[Aib]LDKIAQK([AEEA-AEEA-γGlu-C20 diacid])AFVQWLIAGGPSSGAPPPS-OH) | 0.1 to 1 nM | 108% | > 1000 nM | < 1000 nM | 1 to 10 nM | 110%
2 | CC[C@H](C)[C@H](NC(=O)[C@H](CC(C)C)NC(=O)[C@H](Cc1c[nH]c2ccccc12)NC(=O)[C@H](CCC(N)=O)NC(=O)[C@@H](NC(=O)[C@H](Cc1ccccc1)NC(=O)[C@H](C)NC(=O)[C@H](CCCCNC(=O)COCCOCCNC(=O)COCCOCCNC(=O)CC[C@H](NC(=O)CCCCCCCCCCCCCCCCCCC(=O)O)C(=O)O)NC(=O)[C@H](CCC(N)=O)NC(=O)[C@H](C)NC(=O)[C@@H](NC(=O)[C@H](CCCCN)NC(=O)[C@H](CC(=O)O)NC(=O)[C@H](CC(C)C)NC(=O)C(C)(C)NC(=O)[C@@H](NC(=O)[C@H](CO)NC(=O)[C@H](Cc1ccc(O)cc1)NC(=O)[C@H](CC(=O)O)NC(=O)[C@H](CO)NC(=O)[C@@H](NC(=O)[C@H](Cc1ccccc1)NC(=O)[C@@H](NC(=O)CNC(=O)[C@H](CCC(=O)O)NC(=O)CCNC(=O)C(C)(C)c1cc(F)cc(OC)c1)[C@@H](C)O)[C@@H](C)O)[C@@H](C)CC)[C@@H](C)CC)C(C)C)C(=O)N[C@@H](C)C(=O)NCC(=O)NCC(=O)N1CCC[C@H]1C(=O)N[C@@H](CO)C(=O)N[C@@H](CO)C(=O)NCC(=O)N[C@@H](C)C(=O)N1CCC[C@H]1C(=O)N1CCC[C@H]1C(=O)N1CCC[C@H]1C(=O)N[C@@H](CO)C(N)=O [Compound 118] ({X71-βAla}-EGTFTSDYSI[Aib]LDKIAQK([AEEA-AEEA-γGlu-C20 diacid])AFVQWLIAGGPSSGAPPPS-NH2) | 1 to 10 nM | 103% | > 1000 nM | > 1000 nM | 10 to 100 nM | 105%
